US9351915B2, “Ascorbic acid derivative composition and production method of the same, ascorbic acid derivative solution, and skin external preparation” (SHOWA DENKO K.K., priority 2012, dated 2016)

What was measured:
[1] = Solubility test (time until solid is absent in aqueous medium); assay type: physicochemical; conditions: 20° C., 500 rpm, visual observation every 5 minutes
Protocol: Each substance shown in Table 2 was prepared at the ratio (% by mass) indicated in Table 2 so that the total amount was 100 g. First, pure water or a mixture of pure water and methanol serving as a solvent was placed in a beaker having a capacity of 200 mL, and the beaker was immersed in a water bath which was controlled to 20° C. Then, stirring was performed at a rotational speed of 500 rpm with a stirrer chip having a diameter of 2.5 cm, and the ascorbic acid derivative was mixed at the point where the liquid temperature reached 20° C. This time point was set as the zero point and the time (min) until the solid became absent in the mixture was measured. As for the end point, visual observation was carried out every 5 minutes from the start of the stirring, and the time point at which the mixture became clear was determined as the end point.

[2] = Storage stability test (aqueous solution, residual ratio by HPLC); assay type: physicochemical; conditions: 2% by mass ascorbic acid derivative in purified water, glass bottle with lid, 10 days at 40° C., light shielding; total of 2- and 3-phosphate salts
Text: The sodium salt of L-ascorbic acid-2-phosphoric acid-6-palmitate obtained in Production Example 2 and the sodium salt of L-ascorbic acid-3-phosphoric acid-6-palmitate obtained in Production Example 4 were mixed at a ratio (% by mass) shown in Table 1 to prepare ascorbic acid derivative compositions of Examples 1 to 3.
The mixture obtained in Production Example 6 ((sodium salt of L-ascorbic acid-2-phosphoric acid-6-palmitate): (sodium salt of L-ascorbic acid-3-phosphoric acid-6-palmitate)=97.7:2.3 (mass ratio)) was used as it is as an ascorbic acid derivative composition of Example 4. […]
The concentration of ascorbic acid derivative in each of the solutions obtained before standing (immediately after preparation) and after standing for 10 days was measured, and the “residual ratio” was determined from the results by the following formula.
The concentration of ascorbic acid derivative contained in the solution was measured by the same measuring conditions as in the evaluation of the yield, with a high performance liquid chromatography apparatus using the Shodex SB 802.5 HQ column (manufactured by Showa Denko K.K.). […]

CCCCCCCCCCCCCCCC(=O)OCC(O)C1OC(=O)C(OP(=O)([O-])[O-])=C1[O-].[Na+].[Na+].[Na+] [Comp. Ex. 4, Sodium salt of L-ascorbic acid-2-phosphoric acid-6-palmitate]
Time required for dissolution ([1]; 10% by mass ascorbic acid derivative in 70% by mass pure water + 20% by mass methanol): 65 min

CCCCCCCCCCCCCCCC(=O)OCC(O)C1OC(=O)C([O-])=C1OP(=O)([O-])[O-].[Na+].[Na+].[Na+] [Comp. Ex. 2, Sodium salt of L-ascorbic acid-3-phosphoric acid-6-palmitate]
Residual ratio (%) [2]: 83.9%

CCCCCCCCCCCCCCCC(=O)OCC(O)C1OC(=O)C(OP(=O)([O-])[O-])=C1[O-].[Na+].[Na+].[Na+] [Comp. Ex. 1, Sodium salt of L-ascorbic acid-2-phosphoric acid-6-palmitate]
Residual ratio (%) [2]: 88.6%

CCCCCCCCCCCCCCCC(=O)OCC(O)C1OC(=O)C(OP(=O)([O-])[O-])=C1[O-].[Na+].[Na+].[Na+] [Comp. Ex. 3, Sodium salt of L-ascorbic acid-2-phosphoric acid-6-palmitate]
Time required for dissolution ([1]; 10% by mass ascorbic acid derivative in 90% by mass pure water): 50 min
